According to patent US6706740B2, “Fungicidal heterocyclic aromatic amides and their compositions, methods of use and preparation” (Dow AgroSciences LLC, priority 1999, dated 2004):

Key:
[1] = system: Phytophthora infestans (PHYTIN); assay: microbe, parasite or virus in culture; type: cell-based; conditions: for inhibition at 25 ppm: Phytophthora infestans, read-out: PHYTIN in vitro Growth Inhibition
[2] = system: Stagonospora nodorum (Leptosphaeria nodorum—LEPTNO); assay: In vitro fungal growth inhibition, Stagonospora nodorum (LEPTNO); type: cell-based; conditions: 25 ppm in growth medium; for inhibition at 25 ppm: Leptosphaeria, read-out: LEPTNO in vitro Growth Inhibition
[3] = system: Phytophthora infestans—PHYTIN; assay: whole plant or invertebrate; type: in vivo; conditions: for pest or weed control at 100 ppm: Phytophthora, in Solanum lycopersicum, 24 h, read-out: PHYTIN in vivo 1 Day Protectant
[4] = system: Ustilago maydis (USTIMA); assay: microbe, parasite or virus in culture; type: cell-based; conditions: for inhibition at 25 ppm: Mycosarcoma maydis, read-out: USTIMA in vitro Growth Inhibition
[5] = system: Mycosphaerella graminicola (Septoria tritici—SEPTTR); assay: In vitro fungal growth inhibition, Mycosphaerella graminicola (SEPTTR); type: cell-based; conditions: 25 ppm in growth medium; for inhibition at 25 ppm: Zymoseptoria tritici, read-out: SEPTTR in vitro Growth Inhibition
[6] = system: Erysiphe graminis—ERYSGT; assay: Powdery Mildew of Wheat, in vivo whole plant, 24 Hour Protectant; conditions: 100 ppm spray, 24 hour protectant, wheat, control of fungal infection vs untreated plants; for pest or weed control at 100 ppm: Erysiphe, read-out: ERYSGT in vivo 1 Day Protectant
[7] = system: Leptosphaeria nodorum—LEPTNO; assay: Glume Blotch of Wheat, in vivo whole plant, 24 Hour Protectant; conditions: 100 ppm spray, 24 hour protectant, wheat, control of fungal infection vs untreated plants; for pest or weed control at 100 ppm: Leptosphaeria, read-out: LEPTNO in vivo 1 Day Protectant
[8] = system: Magnaporthe grisea (Pyricularia oryzae—PYRIOR); assay: microbe, parasite or virus in culture; type: cell-based; conditions: for inhibition at 25 ppm: Pyricularia oryzae, read-out: PYRIOR in vitro Growth Inhibition
[9] = system: Rhizoctonia solani (RHIZSO); assay: microbe, parasite or virus in culture; type: cell-based; conditions: for inhibition at 25 ppm: Rhizoctonia solani, read-out: RHIZSO in vitro Growth Inhibition
[10] = system: Puccinia recondita—PUCCRT; assay: Brown Rust of Wheat, in vivo whole plant, 24 Hour Protectant; conditions: 100 ppm spray, 24 hour protectant, wheat, control of fungal infection vs untreated plants; for pest or weed control at 100 ppm: Puccinia, read-out: PUCCRT in vivo 1 Day Protectant
[11] = system: Septoria tritici—SEPTTR; assay: Leaf Blotch of Wheat, in vivo whole plant, 24 Hour Protectant; conditions: 100 ppm spray, 24 hour protectant, wheat, control of fungal infection vs untreated plants; for pest or weed control at 100 ppm: Zymoseptoria tritici, 24 h, read-out: SEPTTR in vivo 1 Day Protectant

Compound | inhibition at 25 ppm [1] | inhibition at 25 ppm [2] | pest or weed control at 100 ppm [3] | inhibition at 25 ppm [4] | inhibition at 25 ppm [5] | pest or weed control at 100 ppm [6] | pest or weed control at 100 ppm [7] | inhibition at 25 ppm [8] | inhibition at 25 ppm [9] | pest or weed control at 100 ppm [10] | pest or weed control at 100 ppm [11] | other results
CCCCC1(C)CC(NC(=O)c2nccc(OC)c2O)CC(C)(C)C1 (stereo not shown) [Compound 253] | > 80% | > 80% | < 25% | < 80% | > 80% | < 25% | 25 to 74% | > 80% | < 80% | 25 to 74% | 25 to 74% | 
CCCCC1(C)CCCC(NC(=O)c2nccc(OC)c2O)C1 (stereo not shown) [Compound 254] | > 80% | > 80% | < 25% | < 80% | > 80% | < 25% | 25 to 74% | > 80% | < 80% | 25 to 74% | 25 to 74% | 
COc1ccnc(C(=O)NC2CC(C)(C)CC3(C2)CC3(F)F)c1O (stereo not shown) [Compound 255] | < 80% | < 80% | < 25% | < 80% | > 80% | < 25% |  | < 80% | < 80% | 25 to 74% | 25 to 74% | LEPTNO in vivo 1 Day Protectant [7]: + +
COc1ccnc(C(=O)NC2CC(C(F)(F)F)CC(C(F)(F)F)C2)c1O (stereo not shown) [Compound 256] | < 80% | < 80% | < 25% | < 80% | < 80% | 25 to 74% | 25 to 74% | < 80% | < 80% | 25 to 74% | 25 to 74% | 
COc1ccnc(C(=O)NC2CC(C)(C)CC(C)(COCC(Cl)CCl)C2)c1O (stereo not shown) [Compound 257] | > 80% | > 80% | < 25% | > 80% | > 80% | < 25% |  | < 80% | < 80% | 25 to 74% | 25 to 74% | LEPTNO in vivo 1 Day Protectant [7]: + +
COc1ccnc(C(=O)NC2CC(c3ccco3)CC(C)(C)C2)c1O (stereo not shown) [Compound 258] | > 80% | > 80% | < 25% | < 80% | > 80% | < 25% | 25 to 74% | < 80% | < 80% | < 25% | 25 to 74% | 
COc1ccnc(C(=O)NC2C[C@H](C)C[C@H](c3ccccn3)C2)c1O (stereo partly shown) [Compound 259] | < 80% | < 80% | 25 to 74% | < 80% | < 80% | < 25% | 25 to 74% | < 80% | < 80% | 25 to 74% | 25 to 74% | 
COc1ccnc(C(=O)NC2CC(C)(C)CC(C)(C(=O)OCCC(C)(C)C)C2)c1O (stereo not shown) [Compound 261] | > 80% | > 80% | 25 to 74% | < 80% | > 80% | < 25% | 25 to 74% | < 80% | < 80% | 25 to 74% | 25 to 74% | 
COc1ccnc(C(=O)N[C@@H]2CC(C)(C)C[C@](C)(C(=O)N(C)CCc3ccccc3)C2)c1O [Compound 263] |  |  |  |  |  |  |  |  |  |  |  | PHYTIN in vitro Growth Inhibition ([1]; 25 ppm in growth medium): − (less than 80% growth inhibition); LEPTNO in vitro Growth Inhibition [2]: − (less than 80% growth inhibition); PHYTIN in vivo 1 Day Protectant ([3]; 100 ppm spray, 24 hour protectant, tomato, control of fungal infection vs untreated plants): − (<25% control of fungal infection); USTIMA in vitro Growth Inhibition [4]: − (key: +: at least 80% growth inhibition; −: less than 80% growth inhibition); SEPTTR in vitro Growth Inhibition [5]: − (less than 80% growth inhibition); ERYSGT in vivo 1 Day Protectant [6]: − (<25% control of fungal infection); LEPTNO in vivo 1 Day Protectant [7]: + (25-74% control of fungal infection); PYRIOR in vitro Growth Inhibition ([8]; 25 ppm in growth medium): − (less than 80% growth inhibition); RHIZSO in vitro Growth Inhibition [9]: − (key: +: at least 80% growth inhibition; −: less than 80% growth inhibition); PUCCRT in vivo 1 Day Protectant [10]: − (<25% control of fungal infection); SEPTTR in vivo 1 Day Protectant [11]: − (<25% control of fungal infection)
COc1ccnc(C(=O)N[C@H]2CC(C)(C)[C@H](O)C(C)(C)C2)c1O [Compound 264, trans-4-HYDROXY-3,3,5,5-TETRAMETHYLPICOLINAMIDE] | < 80% | < 80% | < 25% | < 80% | < 80% | < 25% | < 25% | < 80% | < 80% | 25 to 74% | 25 to 74% | 
COc1ccnc(C(=O)NC2CC(C)(C)C(OC)C(C)(C)C2)c1O (stereo not shown) [Compound 265] | < 80% | < 80% | < 25% | < 80% | < 80% | 25 to 74% | 25 to 74% | < 80% | < 80% | < 25% | 25 to 74% | 
COc1ccnc(C(=O)NC2CC(C)(C)C(=O)C(C)(C)C2)c1O [Compound 266] | < 80% | < 80% | < 25% | < 80% | < 80% | < 25% | 25 to 74% | < 80% | < 80% | < 25% | 25 to 74% | 
COc1ccnc(C(=O)NC2CC(C)(C)C(OC(=O)CC(C)C)C(C)(C)C2)c1O (stereo not shown) [Compound 267] | > 80% | > 80% | < 25% | > 80% | < 80% | < 25% | 25 to 74% | < 80% | < 80% | 25 to 74% | < 25% | 
COc1ccnc(C(=O)NC2CC(C)(C)C(Oc3cc(C(F)(F)F)cc(C(F)(F)F)n3)C(C)(C)C2)c1O (stereo not shown) [Compound 272] | < 80% | < 80% | < 25% | < 80% | > 80% | < 25% | 25 to 74% | < 80% | < 80% | < 25% |  | SEPTTR in vivo 1 Day Protectant [11]: + +
COc1ccnc(C(=O)NC2CCCC(Sc3ccc(C(F)(F)F)cn3)C2)c1O (stereo not shown) [Compound 274] | > 80% | > 80% | < 25% | < 80% | > 80% | < 25% |  | > 80% | > 80% |  | 25 to 74% | LEPTNO in vivo 1 Day Protectant [7]: + +; PUCCRT in vivo 1 Day Protectant [10]: + +
COc1ccnc(C(=O)NC2CCC(Sc3ccccc3)CC2)c1O (stereo not shown) [Compound 275] | < 80% | > 80% | < 25% | < 80% | > 80% | < 25% | 25 to 74% | < 80% | > 80% | < 25% | 25 to 74% | 
COc1ccnc(C(=O)NC2CC(C)(C)CC(C)(C(=O)CCCc3ccccc3)C2)c1O (stereo not shown) [Compound 276] | < 80% | > 80% | < 25% | < 80% | < 80% | < 25% |  | < 80% | < 80% | 25 to 74% | 25 to 74% | LEPTNO in vivo 1 Day Protectant [7]: + +
